Test results published in patent US20170296500A1, “Uses of Chlorogenic Acid in the Preparation of Medicaments for Treatment of Psoriasis” (SICHUAN JIUZHANG BIOLOGICAL SCIENCE AND TECHNOLOGY CO., LTD, priority 2014, published 2017).
Where two headings read alike, the source gives them in different places.

Tests used:
[1] = system: psoriasiform pathological change in aural region of guinea pigs; test: Pharmacodynamic test, psoriasis vulgaris model induced by 5% propranolol emulsion on guinea pig ears; Baker pathologic scores; assay type: in vivo; settings: 14 days; for Pathology of lesional tissue after administration (light microscope): guinea pig ear, HE stain; for Baker scores compared with model group: P<0.01
Text: 60 guinea pigs adapted to diet one week before initiation of experimentation, and both ears of guinea pigs were unhaired, and randomly divided into blank group and experimental group, with 12 guinea pigs for blank group and 48 guinea pigs for experimental group. In experimental group, 5% propranolol dinitrate emulsion was evenly applied to bilateral ear back of guinea pigs, while in blank group, blank medium was applied for 14 days, with a thickness of about 1.0 mm for each time and 4 times per day, to induce pathologic change of psoriasis vulgaris-appearing. […] Based on body weight and conditions of establishing model, the remaining 44 guinea pigs were divided into 4 groups using random digits table, i.e. model group, positive group, low-dose group of chlorogenic acid, high-dose group of chlorogenic acid, 11 guinea pigs for each group.
After administrating for 14 days, samples were taken, and 12% chloral hydrate was peritoneally injected at a dose of 0.35 mL/100 g. After anesthesia, blood sample was collected from abdominal aorta, and animals were sacrificed. Both ear tissues of guinea pigs were scissored and fixed in 10% formaldehyde solution. Ear tissues of guinea pigs were taken out, embedded in paraffin, sliced, normally stained with HE, and sealed with neutral gum. Pathological change of ears was observed under optical microscope, investigated and taken a picture in 10×20 vision. Referring to Baker method, pathologic scores of tissues were assessed: the presence of Munro microabscess in corneum layer scores 2.0 point; hyperkeratosis scores 0.5 point; parakeratosis scores 1.0 point; stratum granulosum thinning and disappearing scores 1.0 point; acanthosis scores 1.0 point; skin process extension and tortuous basal lamina are marked 0.5, 1.0, 1.5 according to light, middle, and heavy degrees, respectively; mononuclear cells and polymorphonuclear cells infiltration in dermis is marked 0.5, 1.0, 1.5 according to light, middle, and heavy degrees, respectively; obvious mastoid extrusion scores 0.5 point; telangiectasis in superficial layer of dermis scores 0.5 point.

[2] = parameters: species or system guinea pigs; settings: guinea pig, in vivo
Experimental: 0.9% sodium chloride solution was administrated to blank group and model group; Positive drug control group was given suspension of acitretin A capsule at 2.25 mg/kg, and the amount of intragastric administration is all 1 mL/100 g for each time, twice a day; 20 mg/kg chlorogenic acid was administrated to the low-dose group by intramuscular injection, and 40 mg/kg chlorogenic acid was administrated to the high-dose group by intramuscular injection, using a volume of 0.2 ml/10 g, once a day.
Before guinea pigs were sacrificed, blood was drawn via peritoneal cavity, and urea nitrogen and creatinine were detected by enzymic method, while glutamate pyruvate transaminase and glutamic-oxalacetic transaminase were tested using rate method.

[3] = system: polymorphonuclear leukocytes (PMN); test: PMN transport into zymosan A-soaked gelatin sponge in peritoneal cavity of mice (psoriasis pustulosa test); assay type: in vivo, Kunmin mice
Experimental: Kunmin mice were randomly divided into 3 groups. Blank control group: according to body weight, about 0.5 ml of peanut oil was administrated to mice by gavage everyday; for high-dose group of chlorogenic acid (20 mg·kg^−1), chlorogenic acid was administrated to each mouse at a dose of 0.4 ml/20 g by peritoneal injection; for low-dose group of chlorogenic acid (10 mg·kg^−1), chlorogenic acid was administrated to each mouse at a dose of 0.4 ml/20 g by peritoneal injection. Following phasic points were observed, i.e. before administration (day 0), days 1, 2, 4, 6 after administration.
After a piece of sterile gelatin sponge (1 cm^2) was immersed in 0.75% zymosan A for 30 min, it was placed in peritoneal cavity of mice by surgery, and mice received standard diet. 24 hours after surgery, 5 mice of same phasic point were decapitated, and the gelatin sponges were taken out and stored in 0.5 ml cell eluant for culturing 30 min at 37 ° C., respectively. The gelatin sponges were washed with 0.01 mol/LPBS0.5 ml thrice, respectively, and the eluant was collected, passed through 40 μm nylon screen cloth, centrifuged, and the volume was 0.5 ml. Cells in above eluants were counted by automatic blood cell counter, and the amount of polymorphonuclear leukocytes (PMN) was read.

With `COc1cc(C)c(/C=C/C(C)=C/C=C/C(C)=C/C(=O)O)c(C)c1C` [Acitretin A capsule, Acitretin A, reference compound] the “Pathology of lesional tissue after administration (light microscope)” value ([1]; positive group 2.25 mg/kg intragastric twice a day) was “obvious improvement” and the “Baker scores compared with model group” value ([1]; guinea pigs, positive group 2.25 mg/kg intragastric twice a day) was “significantly different”.

`O=C(/C=C/c1ccc(O)c(O)c1)O[C@@H]1C[C@](O)(C(=O)O)C[C@@H](O)[C@H]1O` [chlorogenic acid] gave an ALT ([2]; 20 mg/kg) of 33.40 ± 7.26 u/L, an AST ([2]; 20 mg/kg) of 29.10 ± 7.29 u/L and a Serum creatinine ([2]; 20 mg/kg) of 88.33 ± 7.80 µmol/L. It also gave a Urea nitrogen ([2]; 20 mg/kg) of 4.92 ± 0.63 mmol, an ALT ([2]; 40 mg/kg) of 32.30 ± 6.07 u/L and an AST ([2]; 40 mg/kg) of 24.80 ± 2.57 u/L. The Serum creatinine ([2]; 40 mg/kg) was 87.27 ± 4.67 µmol/L, the Urea nitrogen ([2]; 40 mg/kg) was 4.98 ± 0.71 mmol and the “Pathology of lesional tissue after administration (light microscope)” value ([1]; chlorogenic group 20 and 40 mg/kg i.m.) was “obvious improvement”. The “Baker scores compared with model group” value ([1]; guinea pigs, 20 and 40 mg/kg intramuscular injection once a day) was “significantly different”, the “Baker score of low-dose group (20 mg/kg) relative to high-dose group (40 mg/kg)” value ([1]; guinea pigs, intramuscular injection once a day, not dose-dependent) was “superior” and the “Chemotactic activity of PMN in mice” value ([3]; 10 and 20 mg/kg peritoneal injection) was “significantly reduce”. For the same molecule, the PMN transport numbers ([3]; high dose group 20 mg/kg peritoneal injection, Day 0 (before administration)) was 7.60 ± 6.07 ×10^9/L, the PMN transport numbers ([3]; high dose group 20 mg/kg peritoneal injection, Day 1) was 1.54 ± 0.26 ×10^9/L and the PMN transport numbers ([3]; high dose group 20 mg/kg peritoneal injection, Day 2) was 1.20 ± 2.14 ×10^9/L. The PMN transport numbers ([3]; high dose group 20 mg/kg peritoneal injection, Day 4) was 1.15 ± 0.89 ×10^9/L, the PMN transport numbers ([3]; high dose group 20 mg/kg peritoneal injection, Day 6) was 1.10 ± 1.29 ×10^9/L and the PMN transport numbers ([3]; low dose group 10 mg/kg peritoneal injection, Day 0 (before administration)) was 6.98 ± 1.71 ×10^9/L. For the same molecule, the PMN transport numbers ([3]; low dose group 10 mg/kg peritoneal injection, Day 1) was 4.92 ± 2.63 ×10^9/L, the PMN transport numbers ([3]; low dose group 10 mg/kg peritoneal injection, Day 2) was 2.67 ± 1.33 ×10^9/L and the PMN transport numbers ([3]; low dose group 10 mg/kg peritoneal injection, Day 4) was 1.98 ± 0.90 ×10^9/L. The PMN transport numbers ([3]; low dose group 10 mg/kg peritoneal injection, Day 6) was 1.62 ± 0.58 ×10^9/L and the “Inhibitory action on chemotactic activity of PMN, high dose group (20 mg/kg) compared with low dose group (10 mg/kg)” value ([3]; peritoneal injection) was “stronger inhibitory action”.
